Source: article PMC6974402 (Nature, 2019)

How the values were obtained:
SAP1 = biological target: T1, SAP1 (Anopheles gambiae, UniProt Q7Q3U7); assay: 1-NPN fluorescence displacement; format: binding
T1 sequence (Q7Q3U7 18-127): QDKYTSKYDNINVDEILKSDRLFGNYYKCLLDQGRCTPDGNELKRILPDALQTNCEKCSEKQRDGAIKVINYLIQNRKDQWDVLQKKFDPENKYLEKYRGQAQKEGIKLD

SAP3 = biological target: T2, SAP3 (Anopheles gambiae, UniProt Q6H8Z2); assay: 1-NPN fluorescence displacement; format: binding
T2 sequence (Q6H8Z2 18-126): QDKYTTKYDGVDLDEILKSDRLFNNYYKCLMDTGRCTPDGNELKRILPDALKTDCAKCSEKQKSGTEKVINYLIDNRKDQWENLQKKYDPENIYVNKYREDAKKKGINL

SMILES: CC1(C)C(C=C(Cl)Cl)C1C(=O)OC(C#N)c1cccc(Oc2ccccc2)c1 (stereo not drawn) [α-cypermethrin]
- IC50 (SAP1): 9.02 µM

SMILES: CC1(C)[C@H](C(=O)O[C@H](C#N)c2cccc(Oc3ccccc3)c2)[C@@H]1C=C(Br)Br [deltamethrin]
- IC50 (SAP1): > 10 µM
- IC50 (SAP3): > 10 µM
